In publication PMC10037270 (Journal of medicinal chemistry, 2023):

What was measured:
[1] = target: HA-mouse μOR (Mus musculus, UniProt P42866); assay: GloSensor cAMP inhibition assay at μOR in transfected HEK cells; type: cell-based; conditions: HEK293, read-out: cAMP inhibition at μOR Emax % ± SEM
[2] = target: T1, μOR (Homo sapiens, UniProt P35372); type: binding; conditions: screen at 1 μM, [3H]DAMGO
[3] = target: κOR (Homo sapiens, UniProt P41145); type: binding
[4] = target: T1, μOR; type: cell-based; conditions: at 10 μM, DAMGO as control
[5] = test system: C57BL/6 mice; assay: Accelerating rotarod assay; type: in vivo
[6] = test system: C57BL/6 mice; assay: Warm-water tail-flick assay; type: in vivo
[7] = test system: C57BL/6 mice; assay: Hot-plate assay; type: in vivo
[8] = naloxone 10 mg/kg i.p. 15 min before 33 100 mg/kg s.c.

T1 sequence (P35372 whole entry): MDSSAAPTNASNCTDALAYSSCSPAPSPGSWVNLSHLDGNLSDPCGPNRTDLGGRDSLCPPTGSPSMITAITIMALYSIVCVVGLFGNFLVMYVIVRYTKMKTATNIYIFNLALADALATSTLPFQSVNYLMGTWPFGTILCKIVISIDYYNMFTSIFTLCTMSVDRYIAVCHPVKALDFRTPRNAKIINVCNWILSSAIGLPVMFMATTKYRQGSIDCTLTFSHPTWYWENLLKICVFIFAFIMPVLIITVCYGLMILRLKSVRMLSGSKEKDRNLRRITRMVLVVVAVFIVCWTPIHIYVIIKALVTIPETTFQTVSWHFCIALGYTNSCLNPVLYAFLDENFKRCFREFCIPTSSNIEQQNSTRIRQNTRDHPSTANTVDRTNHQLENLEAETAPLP
Sequence of HA-mouse μOR (P42866 whole entry): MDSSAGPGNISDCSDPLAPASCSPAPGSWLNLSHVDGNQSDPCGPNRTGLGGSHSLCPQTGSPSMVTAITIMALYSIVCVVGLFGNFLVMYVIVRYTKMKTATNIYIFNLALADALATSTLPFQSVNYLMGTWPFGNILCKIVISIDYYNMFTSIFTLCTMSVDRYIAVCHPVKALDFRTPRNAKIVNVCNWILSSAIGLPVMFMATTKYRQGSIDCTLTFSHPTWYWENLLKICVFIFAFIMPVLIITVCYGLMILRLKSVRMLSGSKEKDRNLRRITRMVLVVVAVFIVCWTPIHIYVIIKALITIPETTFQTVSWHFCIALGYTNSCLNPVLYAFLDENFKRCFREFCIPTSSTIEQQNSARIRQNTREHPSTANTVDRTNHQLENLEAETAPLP
Sequence of κOR (P41145 whole entry): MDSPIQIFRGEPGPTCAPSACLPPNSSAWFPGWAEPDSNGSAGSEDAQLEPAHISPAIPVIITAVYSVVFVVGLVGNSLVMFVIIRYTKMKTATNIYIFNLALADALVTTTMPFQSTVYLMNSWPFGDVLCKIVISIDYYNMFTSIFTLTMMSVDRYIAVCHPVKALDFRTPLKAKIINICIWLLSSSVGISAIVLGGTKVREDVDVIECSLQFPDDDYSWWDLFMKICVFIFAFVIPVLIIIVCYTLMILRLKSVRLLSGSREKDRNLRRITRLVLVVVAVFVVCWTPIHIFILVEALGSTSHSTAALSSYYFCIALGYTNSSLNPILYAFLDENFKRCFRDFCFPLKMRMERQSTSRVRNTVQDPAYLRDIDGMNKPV

SMILES: C/C=C1/CN2CC[C@@]34c5cc(O)c(I)cc5N(C)[C@]35OC[C@@]4(C(=O)OC)[C@H]1C[C@H]25 [Compound 20, 11-Iodoakuammine]
- Emax [1]: 32 ± 6%
- radioligand displacement at μOR [2]: > 50%
- radioligand displacement at κOR [3]: > 50%

SMILES: C[C@@H](NC(=O)[C@@H](N)Cc1ccc(O)cc1)C(=O)NCC(=O)N(C)[C@@H](Cc1ccccc1)C(=O)NCCO [DAMGO, (2S)-2-[[2-[[(2R)-2-[[(2S)-2-Amino-3-(4-hydroxyphenyl)propanoyl]amino]propanoyl]amino]acetyl]-methylamino]-N-(2hydroxyethyl)-3-phenylpropanamide, reference compound]
- Emax [1]: 96 ± 4%

SMILES: C/C=C1\CN2CC[C@@]34c5ccccc5N(Cc5ccccc5)[C@]35OC[C@@]4(C(=O)OC)[C@H]1C[C@H]25 [Compound 32, N-1-Benzyl psuedoakuammigine]
- Emax [1]: 63 ± 4%

SMILES: C/C=C1\CN2CC[C@@]34c5ccccc5N(CCc5ccccc5)[C@]35OC[C@@]4(C(=O)OC)[C@H]1C[C@H]25 [Compound 33, N-1-Phenethyl psuedoakuammigine]
- Emax [1]: 76 ± 5%
- recruitment of βArr2 to the μOR [4]: < 10%
- effect on locomotor activity, latency to fall ([5]; 65 mg/kg and 80 mg/kg s.c., accelerating rotarod 4-40 rpm over 300 s): significantly impaired motor activity
- effect on motor coordination ([5]; high doses (80, 100 mg/kg, s.c.)): impair motor coordination
- ED50 ([6]; Mus musculus, sc, read-out: ED50 tail-flick assay): 77.6 mg/kg
- antinociception versus morphine (10 mg/kg), peak effect and duration ([6]; mice, 100 mg/kg s.c., tail-flick): comparable to that of the morphine
- antinociceptive effect in tail-flick assay ([6]; mice, 80 and 100 mg/kg s.c.): exhibited antinociceptive effect
- antinociceptive effect after naloxone pretreatment, tail-flick [6, 8]: completely blocked by naloxone
- antinociceptive effect in hot-plate assay ([7]; mice, 80 and 100 mg/kg s.c.): exhibited antinociceptive effect
- antinociceptive effect after naloxone pretreatment, hot-plate [7, 8]: completely blocked by naloxone

SMILES: C/C=C1/CN2CC[C@@]34c5ccccc5N(C)[C@]35OC[C@@]4(C(=O)OC)[C@H]1C[C@H]25 [Compound 2, Pseudoakuammigine, reference compound]
- Emax [1]: 82 ± 7%

SMILES: C/C=C1/CN2CC[C@@]34c5cc(O)c(Br)cc5N(C)[C@]35OC[C@@]4(C(=O)OC)[C@H]1C[C@H]25 [Compound 19, 11-Bromoakuammine]
- Emax [1]: 40 ± 5%
- radioligand displacement at μOR [2]: > 50%
- radioligand displacement at κOR [3]: > 50%

SMILES: C/C=C1/CN2CC[C@@]34c5cc(O)ccc5N(C)[C@]35OC[C@@]4(C(=O)OC)[C@H]1C[C@H]25 [Compound 1, Akuammine, reference compound]
- Emax [1]: 62 ± 6%

SMILES: C/C=C1\CN2CC[C@@]34c5ccccc5N(CC)[C@]35OC[C@@]4(C(=O)OC)[C@H]1C[C@H]25 [Compound 31, N-1-Ethyl psuedoakuammigine]
- Emax [1]: 59 ± 4%
